Values of other authors, collected in patent publication US6444192B1, “Diagnostic imaging of lymph structures” (The Regents of the University of California, priority 1999, dated 2002).
Like-named read-outs stand apart in the source and are kept apart here.

Conditions: 3 to 5 mL in the breast mass and surrounding tissue

CCN(CC)c1ccc(C(=C2C=CC(=[N+](CC)CC)C=C2)c2cc(S(=O)(=O)[O-])ccc2S(=O)(=O)[O-])cc1.[Na+] [isosulfan blue]
sentinel node detected (first 87 cases): 58%
sentinel node detected (next 87 cases): 78%
